PubChem BioAssay (NCI)
Several values for one entry are separate records, joined by “and”; a condition that tells them apart may be missing. Equal values may be shown once.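 Protocol summary: plate cells (96-well), add compound at 5 concentrations, incubate 48 h, interpolate endpoints linearly. GI50 = concentration required for 50% inhibition of growth. Definition used: TGI = concentration required for complete inhibition of growth.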

Columns and labels:
Assay in all cases: growth of human tumour cells (NCI), 48 h
HL-60(TB) leukemia = tested on: HL-60(TB) leukemia
ACHN renal = tested on: ACHN renal
MCF7 breast = tested on: MCF7 breast
SW-620 colon = tested on: SW-620 colon
MDA-MB-231 breast = tested on: MDA-MB-231 breast
M14 melanoma = tested on: M14 melanoma
SNB-75 CNS = tested on: SNB-75 CNS
RXF 393 renal = tested on: RXF 393 renal
T-47D breast = tested on: T-47D breast
SF-539 CNS = tested on: SF-539 CNS
HS 578T breast = tested on: HS 578T breast
UACC-62 melanoma = tested on: UACC-62 melanoma
SR leukemia = tested on: SR leukemia

Structure (SMILES)	TGI (HL-60(TB) leukemia) [µM]	TGI (ACHN renal) [µM]	TGI (MCF7 breast) [µM]	TGI (SW-620 colon) [µM]	TGI (MDA-MB-231 breast) [µM]	TGI (M14 melanoma) [µM]	TGI (SNB-75 CNS) [µM]	TGI (RXF 393 renal) [µM]	TGI (T-47D breast) [µM]	TGI (SF-539 CNS)	TGI (HS 578T breast)	TGI (UACC-62 melanoma)	TGI (SR leukemia) [µM]	GI50 (HL-60(TB) leukemia) [µM]	GI50 (MDA-MB-231 breast) [µM]	GI50 (SNB-75 CNS) [µM]	GI50 (T-47D breast) [µM]	GI50 (SF-539 CNS)	GI50 (UACC-62 melanoma) [µM]
COC(=O)c1c(C)cccc1C1CN=NC12Cc1cc(C)cc(C)c1C2=O (configuration not stated)	44.2	> 100	29.1	> 100	98.2	> 100	99.3	> 100	> 100	> 100 µM	> 100 µM	> 100 µM	–	–	–	–	–	–	–
CC1SC2(CCCCC2)N(NC(=O)CSc2nc3ccc(Cl)cc3c(=O)n2-c2ccccc2)C1=O (configuration not stated)	51	83.9	32.2	75.2	35	42.2	50.4	38.5	> 100	33 µM	–	37.5 µM	–	–	–	–	–	–	–
C/C=C(\C)C(=O)O[C@@H]1CC(C)(C)CC2C3=CCC4[C@]56CC[C@](O)(OC5)C(C)(C)C6CC[C@@]4(C)C3(C)CC[C@]21C(=O)O (some centres not stated)	> 100	> 100	> 100	> 100	> 100	> 100	–	> 100	> 100	> 100 µM	> 100 µM	> 100 µM	–	–	–	–	–	–	–
COc1ccc2c(c1)NC1(CCN(CCCC(=O)c3ccc(F)cc3)CC1)N=N2	32.8	> 100	40.5	57.9	45.7	26.6	39.8	55.1	53.5	35.9 µM	–	41.6 µM	35.4	–	–	–	–	–	–
COc1c(Br)cc2ccccc2c1-c1c(OC)c(Br)cc2ccccc12	> 100	> 100	> 100	> 100	> 100	> 100	> 100	> 100	> 100	> 100 µM	> 100 µM	> 100 µM	–	–	–	–	–	–	–
COC(=O)C1=C(O)CCCC(C2CCCCC(=O)C2C(=O)OC)=C1 (configuration not stated)	–	> 100	70.4	> 100	> 100	> 100	> 100	> 100	> 100	> 100 µM	–	42.3 µM	> 100	–	–	–	–	–	–
NCCCNOCCCN	–	> 100	> 100	> 100	> 100	> 100	–	> 100	> 100	> 100 µM	–	> 100 µM	> 100	–	–	–	–	–	–
Cc1nc2c(cc1OCc1ccccc1)C(=O)C1=C(C2=O)C2OC(=O)CC2OC1(C)C (configuration not stated)	0.371	1.86	0.339	–	1.51	1.77	3.94	1.64	1.23	2.04 µM	0.583 µM	0.322 µM	–	–	–	–	–	–	–
NC(=O)CC(N)C(=O)NC(Cc1ccccc1)C(=O)NC(Cc1ccccc1)NC(=O)C(Cc1c[nH]c2ccccc12)C(=O)O (configuration not stated)	–	> 100	> 100	> 100	> 100	> 100	> 100	> 100	> 100	> 100 µM	> 100 µM	> 100 µM	–	–	–	–	–	–	–
CN(C)CCNC(=O)c1cccc2nc3c(C(=O)NCCN(C)C)cccc3nc12	3.96	22.3	–	12.1	3.4	3.13	8.12	4.06	34.5	6.64 µM	7.73 µM	9.6 µM	3.6	–	–	–	–	–	–
Nc1ccc2ccc(N3CCNCC3)nc2n1	> 100	> 100	> 100	> 100	> 100	> 100	> 100	–	–	> 100 µM	> 100 µM	> 100 µM	> 100	–	–	–	–	–	–
CCOC(=O)CCN1C(=O)C(=O)N(c2ccc(OC)cc2)C1=S	> 100	> 100	–	> 100	> 100	–	> 100	> 100	> 100	> 100 µM	> 100 µM	48.5 µM	> 100	–	–	–	–	–	–
c1ccc(SC23C4C5C6C4C2C6C53)nc1 (configuration not stated)	–	> 100	–	> 100	–	> 100	> 100	–	–	> 100 µM	–	> 100 µM	> 35	–	–	–	–	–	–
CCn1c2c(c3ccccc31)[C@@H](c1ccc(Cl)cc1)CC1C(=O)N(c3ccccc3)C(=O)C21 (some centres not stated)	> 100	> 100	–	> 100	–	> 100	> 100	> 100	–	97.1 µM	–	> 100 µM	98.8	–	–	–	–	–	–
CCCCSC1=N/C(=C\c2ccc(N(C)C)cc2)C(=O)N1	> 100	> 100	> 100	> 100	75.8	> 100	> 100	> 100	81.8	63.9 µM	92.1 µM	81.3 µM	–	–	–	–	–	–	–
COC(=O)CCNc1c2ccccc2nc2cccc([N+](=O)[O-])c12	0.028	–	0.277	–	1.44	–	0.0722	0.00217	0.466	0.0115 µM and 0.0395 µM	0.0128 µM and 0.0651 µM	0.00428 µM and 0.0364 µM	–	0.00274	0.394	0.0185	0.0283	0.00238 µM and 0.0131 µM	0.00136
COC(=O)[C@]1(c2cc3ccccc3[nH]2)CC2CN(C(=O)OCc3ccccc3)C1CC2=O (some centres not stated)	44.4	86	35.5	> 100	32.4	75.1	64.6	68.2	76.2	> 100 µM	62.4 µM	58.7 µM	–	–	–	–	–	–	–
CCCCc1ccc(Nc2nc(Cl)c3ccn(C4CC(Oc5ccc(C)cc5)C(COc5ccc(C)cc5)O4)c3n2)cc1 (configuration not stated)	> 46.4	31.4	> 46.4	> 46.4	> 46.4	> 46.4	> 100	> 46.4	> 46.4	> 46.4 µM	> 100 µM	30.6 µM	–	–	–	–	–	–	–
